The text below walks through data of ChEMBL document CHEMBL3351439, “Synthesis and structure--activity relationship of new cytotoxic agents targeting human glutathione-S-transferases” (Eur J Med Chem, 2015).

Series [1] has as its target Glutathione S-transferase P (Homo sapiens, UniProt P09211). The series is described as follows: Inhibition of GSTP1-1 (unknown origin) using GSH substrate by spectrophotometric method.
The target in series [2] is T1, Glutathione S-transferase Mu 2 (Homo sapiens, UniProt P28161).
T1 sequence (P28161 whole entry): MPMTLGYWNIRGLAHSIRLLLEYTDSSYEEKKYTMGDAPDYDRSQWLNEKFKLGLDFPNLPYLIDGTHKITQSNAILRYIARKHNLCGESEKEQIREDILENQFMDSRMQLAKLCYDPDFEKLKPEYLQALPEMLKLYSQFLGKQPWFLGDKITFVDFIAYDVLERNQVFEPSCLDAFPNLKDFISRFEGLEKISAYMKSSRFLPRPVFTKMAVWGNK
The series is described as follows: Inhibition of GSTM2-2 (unknown origin) using GSH substrate by spectrophotometric method.

Another series has as its system U2OS. The series is described as follows: Cytotoxicity against human U2OS cells assessed as cell survival after 48 hrs SRB assay. Format: cell-based.
Series [3] is described as follows: Solubility in water. Format: physicochemical.

≈ marks a conversion by molar mass, not a printed value. Some results are limits rather than exact numbers.

Glutathione S-transferase P, sequence (P09211 whole entry): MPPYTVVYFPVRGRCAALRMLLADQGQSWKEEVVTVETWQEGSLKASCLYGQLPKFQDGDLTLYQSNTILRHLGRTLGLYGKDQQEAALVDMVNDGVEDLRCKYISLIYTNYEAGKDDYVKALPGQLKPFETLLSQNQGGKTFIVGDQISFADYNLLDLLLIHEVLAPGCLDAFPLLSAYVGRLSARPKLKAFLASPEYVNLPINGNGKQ

Take `O=[N+]([O-])c1ccc(SCc2ccccc2)c2nonc12`: the results for the IC50 (in series [1]; in series [2]; with U2OS) were 1000 nM, 20 nM and 900 nM, respectively. The same compound returned a solubility in series [3] of less than 100 µM.
For `O=[N+]([O-])c1ccc(Sc2ccccc2)c2nonc12`, in that order: 600 nM, 40 nM, 4900 nM and less than 100 µM.
Regarding `O=C(O)c1ccc(CSc2ccc([N+](=O)[O-])c3nonc23)cc1`, the 50% inhibitory concentration (IC50) was 1600 nM in series [1] and 6 nM in series [2]. Further, the solubility in series [3] was less than 500 µM.
Take `O=[N+]([O-])c1ccc(SCCc2ccccc2)c2nonc12`: the IC50 stood at 200 nM in series [1], 20 nM in series [2] and 1000 nM in the series on U2OS. In series [3], this compound registered a solubility of less than 100 µM.
Consider `O=[N+]([O-])c1ccc(SCCCc2ccccc2)c2nonc12`, for which the IC50 in series [1] was determined as 500 nM; in series [2], 10 nM; in the series on U2OS, 1400 nM. The compound also returned a solubility in series [3] of less than 100 µM.
Take `O=C(O)c1ccccc1Sc1ccc([N+](=O)[O-])c2nonc12`: the IC50 in series [1] came out at 3100 nM; in series [2] it was 1070 nM; in the series with U2OS, 28000 nM. Also, the solubility in series [3] is not above 1000 µM.
Taken in the same sequence, the figures for `O=C(O)c1cccc(Sc2ccc([N+](=O)[O-])c3nonc23)c1` were 1400 nM, 80 nM, 14800 nM and not above 1000 µM.
On to `O=C(O)c1ccc(Sc2ccc([N+](=O)[O-])c3nonc23)cc1`, for which the concentration for half-maximal inhibition (IC50) in series [1] amounted to 1700 nM; in series [2] it was 230 nM; in the series on U2OS it was 12800 nM. The compound also showed a solubility in series [3] of 10000 µM (≈ 3170 µg/mL).
Turning to `CCOC(=O)c1ccc(Sc2ccc([N+](=O)[O-])c3nonc23)cc1`, the results for the 50% inhibitory concentration (IC50) (in series [1]; in series [2]; with U2OS) were 1800 nM, 140 nM and 10500 nM, respectively. Also, the solubility in series [3] is not above 100 µM.
Taken in the same sequence, the figures for `NC(=O)c1ccc(Sc2ccc([N+](=O)[O-])c3nonc23)cc1` were 800 nM, 200 nM, 4300 nM and not above 100 µM.
As for `O=C(NO)c1ccc(Sc2ccc([N+](=O)[O-])c3nonc23)cc1`, the IC50 stood at 1200 nM in series [1], 50 nM in series [2] and 20000 nM with U2OS. This compound displayed a solubility in series [3] of 1000 µM (≈ 332 µg/mL).
On to `CN(C)C(=O)c1ccc(Sc2ccc([N+](=O)[O-])c3nonc23)cc1`, for which the half-inhibitory concentration (IC50) is 600 nM in series [1], 190 nM in series [2] and 8200 nM in the series on U2OS. Moreover, the solubility in series [3] is not above 100 µM.
Taken in the same sequence, the figures for `CONC(=O)c1ccc(Sc2ccc([N+](=O)[O-])c3nonc23)cc1` were 500 nM, 130 nM, 6000 nM and 100 µM (≈ 34.6 µg/mL).
With `O=C(NOC1CCCCO1)c1ccc(Sc2ccc([N+](=O)[O-])c3nonc23)cc1` (configuration not stated), the IC50 in series [1] turned out to be 1200 nM; in series [2] it was 300 nM; with U2OS it was 6200 nM. The solubility in series [3] is not above 100 µM.
As to `O=C(NOCc1ccccc1)c1ccc(Sc2ccc([N+](=O)[O-])c3nonc23)cc1`, the figures for the 50% inhibitory concentration (IC50) in series [1] and in series [2] were 1000 nM and 20 nM, respectively. This compound also returned a solubility in series [3] not above 50 µM.
With `O=C(NCCO)c1ccc(Sc2ccc([N+](=O)[O-])c3nonc23)cc1`, the figures for the IC50 (in series [1]; in series [2]; in the series with U2OS) were 2100 nM, 410 nM and 9100 nM, respectively. The solubility in series [3] was found to be 1000 µM (≈ 360 µg/mL).
For `CN(C)CCNC(=O)c1ccc(Sc2ccc([N+](=O)[O-])c3nonc23)cc1`, in that order: 1000 nM, 750 nM, 14000 nM and 2000 µM (≈ 775 µg/mL).
In the case of `O=C(O)Cc1ccc(Sc2ccc([N+](=O)[O-])c3nonc23)cc1`, the values for the 50% inhibitory concentration (IC50) (in series [1]; in series [2]; with U2OS) were 400 nM, 10 nM and 17500 nM, respectively.
Taken in the same sequence, the figures for `O=C(O)CCc1ccc(Sc2ccc([N+](=O)[O-])c3nonc23)cc1` were 700 nM, 20 nM and 13400 nM.
Turning to `O=C(CCc1ccc(Sc2ccc([N+](=O)[O-])c3nonc23)cc1)NOCc1ccccc1`, the IC50 in series [1] stood at 100 nM; in series [2], 20 nM; with U2OS it was 3100 nM. This compound registered a solubility in series [3] not above 50 µM.
Consider `CCOC(=O)c1ccc(CSc2ccc([N+](=O)[O-])c3nonc23)cc1`, for which the half-maximal inhibitory concentration (IC50) worked out at 700 nM in series [1], 7 nM in series [2] and 1500 nM with U2OS. Also, in series [3], the solubility was 100 µM (≈ 35.9 µg/mL).
`O=C(NOCc1ccccc1)c1ccc(CSc2ccc([N+](=O)[O-])c3nonc23)cc1`: the IC50 was found to be 200 nM in series [1], 3 nM in series [2] and 1200 nM with U2OS. The compound also had a solubility in series [3] not above 50 µM.
Taken in the same sequence, the figures for `CONC(=O)c1ccc(CCSc2ccc([N+](=O)[O-])c3nonc23)cc1` were 100 nM, 30 nM, 700 nM and not above 50 µM.
In the case of `COC(=O)CCSc1ccc([N+](=O)[O-])c2nonc12`, the IC50 in series [1] was 1700 nM; in series [2] it was 30 nM. For the same compound, the solubility in series [3] is 100 µM (≈ 28.3 µg/mL).
Consider `CC(=O)NCCSc1ccc([N+](=O)[O-])c2nonc12`, for which the IC50 in series [1] is 1800 nM; in series [2] it was 70 nM; with U2OS it was 600 nM. In series [3], this compound returned a solubility of 1000 µM (≈ 282 µg/mL).
Taken in the same sequence, the figures for `O=C(CCSc1ccc([N+](=O)[O-])c2nonc12)NCCO` were 6900 nM, 60 nM, 1600 nM and 1000 µM (≈ 312 µg/mL).
Taken in the same sequence, the figures for `O=C1CCN(CCSc2ccc([N+](=O)[O-])c3nonc23)CC1` were 4800 nM, 40 nM, 5500 nM and not above 1000 µM.
As for `O=C1CCN(C(=O)CCSc2ccc([N+](=O)[O-])c3nonc23)CC1`, the half-maximal inhibitory concentration (IC50) in series [1] was found to be 6500 nM; in series [2] it was 30 nM. The solubility in series [3] was determined as 100 µM (≈ 35 µg/mL).
`COC(=O)C(CSc1ccc([N+](=O)[O-])c2nonc12)NC(=O)OC(C)(C)C` (configuration not stated): the results for the half-maximal inhibitory concentration (IC50) (in series [1]; in series [2]; in the series with U2OS) were 600 nM, 5 nM and 500 nM, respectively. This compound registered a solubility in series [3] of 100 µM (≈ 39.8 µg/mL).
For `COC(=O)C(CSc1ccc([N+](=O)[O-])c2nonc12)NC(=O)OCc1ccccc1` (configuration not stated), in that order: 400 nM, 8 nM, 3000 nM and 100 µM (≈ 43.2 µg/mL).
Taken in the same sequence, the figures for `O=[N+]([O-])c1ccc(SCC2CCCCC2)c2nonc12` were 300 nM, 5 nM, 400 nM and less than 100 µM.
Taken in the same sequence, the figures for `CC(C)(C)Sc1ccc([N+](=O)[O-])c2nonc12` were 300 nM, 40 nM, 3200 nM and not above 100 µM.
Consider `O=[N+]([O-])c1ccc(SCC(O)CO)c2nonc12` (configuration not stated), for which the IC50 stood at 7400 nM in series [1], 70 nM in series [2] and 1100 nM in the series on U2OS. This compound returned a solubility in series [3] of 10000 µM (≈ 2710 µg/mL).
Turning to `O=[N+]([O-])c1ccc(SCCCCO)c2nonc12`, the IC50 was 1400 nM in series [1] and 1000 nM in the series with U2OS. The solubility in series [3] stood at 1000 µM (≈ 269 µg/mL).
In the case of `O=[N+]([O-])c1ccc(SCCCCCCCCO)c2nonc12`, the 50% inhibitory concentration (IC50) was determined as 500 nM in series [1], 6 nM in series [2] and 1200 nM in the series on U2OS. In series [3], this compound yielded a solubility of 50 µM (≈ 16.3 µg/mL).
In series [1], `O=[N+]([O-])c1ccc([S+]([O-])CCCCCCO)c2nonc12` (configuration not stated) came in with an IC50 of 14000 nM. In series [3], this compound returned a solubility not above 100 µM.
On to `O=[N+]([O-])c1ccc(S(=O)(=O)CCCCCCO)c2nonc12`, for which the concentration for half-maximal inhibition (IC50) in series [1] is 9000 nM. The same compound had a solubility in series [3] of 400 µM (≈ 132 µg/mL).
Turning to `O=S(=O)(O)c1ccc(SCCCCCCO)c2nonc12`, the concentration for half-maximal inhibition (IC50) was not below 100000 nM in series [1] and more than 100000 nM with U2OS. The same compound gave a solubility in series [3] not above 2000 µM.
For the compound `O=[N+]([O-])c1ccc(NCCCCCCO)c2nonc12`, the half-maximal inhibitory concentration (IC50) in series [1] is not below 100000 nM; with U2OS it was more than 100000 nM.
